From patent publication US20070105810A1, “THERAPEUTICS” (priority 2003, published 2007)
Entries after “also recorded” stand apart in the source; their conditions may differ. Structures can show the parent of a compound that is named as a salt.

Experiments:
pancreatic acinar cells = test: CCK-induced oscillations of Ca2+ in pancreatic acinar cells; type: cell-based, mouse; details: for CCK-evoked calcium spiking/oscillations: external application, 1 mM, pre- and post-applied with respect to CCK (5 pM)
Experimental: Pancreatic acinar cells were seeded onto poly-lysine-coated number 1 glass coverslips and loaded by incubating cells with 1-5 μM fura-2 acetoxymethylester (Molecular Probes; Leiden, Holland) for 60 min at room temperature. After the loading period, cells were subsequently washed and maintained in buffer at room temperature and used immediately. Cells were excited alternately with 340 and 380 nm light (emission 510 nm), and ratio image of clusters were recorded every 4-5 s, using a 12-bit CCD camera (MicroMax; Princeton Instruments, NJ). All experiment were conducted at room temperature. CMA008 (1-Carbamoylmethyl-3-carboxy-pyridinium iodide) is dissolved in 50% DMSO. Final concentration of DMSO is 0.5% in the solution (composition in mM: 140 NaCl, 4.7 KCl, 1 CaCl2, 1.13 MgCl2, 10 HEPES, 10 Glucose, pH adjusted to 7.2)
Pancreatic acinar cells were isolated from mice and dispersed by collagenase treatment. Cells were incubated with fura-2 AM for 30 min and washed before being imaged on a Metafluor system. The cells were alternately excited at 340/380 nm and emitted light collected at around 510 nm. The ratio of the intensities of emitted light at the two excitation wavelengths were calculated, converted to free calcium concentrations, and plotted again time.
Pancreatic acinar cells were seeded onto poly-lysine-coated number 1 glass coverslips and loaded with calcium indicator by incubating cells with […] fura-2 acetoxymethylester (Molecular Probes; Leiden, Holland) for 60 min at room temperature. After the loading period, cells were subsequently washed and maintained in buffer at room temperature and used immediately. Cells were excited alternately with 340 and 380 nm light (emission 510 nm), and ratio image of clusters 5 were recorded every 4-5 s, using a 12-bit CCD camera (MicroMax; Princeton Instruments, NJ).
All experiments were conducted at room temperature. CMA008 (1-Carbamoylmethyl-3-carboxy-pyridinium iodide) was dissolved in 50% DMSO. Final concentration of DMSO was 0.5% in the solution (composition in mM: 140 NaCl, 4.7 KCl, 1 CaCl2, 1.13 MgCl2, 10 HEPES, 10 Glucose, pH adjusted to 7.2). The inhibition of CCK-evoked calcium spiking, both pre- and post-applied with respect to CCK (5 pM), was consistent with inhibition of NAADP-induced calcium release by CMA008 (1 mM). The biological data for these experiments is presented in FIG. 7 (see also the description of the figures above).

[1] = tested on: calcium mobilization by cADPR; test: Calcium mobilization by cADPR in sea urchin egg homogenate; type: biochemical
Experimental: (§1) Samples diluted to 2.5% in GluIM in the presence of regenerating system and kept at 17° C. with agitation for 3 hours to facilitate calcium uptake into stores. Calcium release was determined by measuring increase in Fluo-3 fluorescence at 526 nm. Data expressed as % of 250 nM NAADP calcium release in the absence of CMA008 (1-Carbamoylmethyl-3-carboxy-pyridinium iodide). […] CMA008 has no effect on the total calcium mobilization by IP3 or cADPR (insert) indicating the selectivity of this compound on the NAADP-sensitive release mechanism.
(§2) • Subcellular fractions: calcium concentrations are measured with fluo-3 (3 μM) at physiological temperatures, using cell homogenates or subcellular fractions in a fluorimeter (Perkin-Elmer LS-50B) at 506 nm excitation and 526 nm emission. • Intact cells: Injected or hydrolysed ester derivatives of calcium sensitive dye are imaged in intact cells by laser-scanning confocal microscopy (TCS NT, Leica) Images were processed with the software NIH Image to create a self-ratio by dividing each image (F) by an image acquired before stimulation (Fo). [drawing 13] wherein R1, R2 and R3 are as defined herein. I Preparation of Nicotinic Acid Derivatives [drawing 14]

[2] = tested on: calcium mobilization by IP3; test: Calcium mobilization by IP3 in sea urchin egg homogenate; type: biochemical
Experimental: as §1, §2

[3] = tested on: NAADP-induced calcium release in intact sea urchin eggs; test: Calcium release on photolysis of caged NAADP in intact sea urchin eggs; type: cell-based, Lytechinus pictus
Description: Sea urchin eggs were microinjected with a solution containing the calcium reporter dye, calcium green dextran, together with caged NAADP. Fluorescence was then imaged on a Leica confocal microscope using an excitation wavelength of 488 nm. In the control egg [see FIG. 6 A] a brief UV flash photolysed a proportion of the caged NAADP and evoked a large calcium transient.
Sea urchin eggs of Lytechinus pictus were obtained by intracoelomic injection of 0.5 M KCl shed into artificial sea water (in mM, NaCl 435, MgCl2 40, MgSO4 15, CaCl2 11, KCl 10, NaHCO3 2.5, EDTA 1), dejellied by passing through […] nylon mesh, and then washed twice by centrifugation. Eggs were transferred to polylysine-coated glass coverslips for microinjection and microscopy. Oregon Green 488 BAPTA (1,2-bis(2-aminophenoxy)ethane-N,N,N9,N9-tetraacetic acid dextran; Molecular Probes) was pressure-microinjected (Picospritzer; World Precision Instruments). The calcium-sensitive dye was imaged by laser-scanning confocal microscopy (Leica model TCS NT) using the 488-nm line of an argon ion laser for excitation, and the emission was long passfiltered (515 nm) and detected with a photomultiplier tube. Caged NAADP (^29P-(1-(2-nitrophenyl)ethyl) NAADP; Molecular Probes) was purified further by high performance liquid chromatography to remove small amounts of contaminating free NAADP. […]

NAADP binding site = test: [32P]NAADP binding to sea urchin egg homogenate
Experimental: [^32P]NAADP binding to 0.5% sea urchin egg homogenate.
Competitive CMA008 (1-Carbamoylmethyl-3-carboxy-pyridinium iodide) displacement of [^32P]NAADP (0.2 nM). Samples diluted in GluIM (intracellular medium), pre-incubated with indicated concentration of CMA008 for 10 minutes, then 0.2 nM [^32P]NAADP added and incubated at room temperature for a further 15 mins. Samples filtered through Whatman GF/B filters to separate bound and free [^32P]NAADP ligand. Non specific binding is defined by incubation of the homogenate in the presence of 10 μM NAADP. n=2. Data expressed as a fraction of total binding.
2.5% sea urchin egg homogenate was diluted into GluIM pre-incubated with indicated concentration of CMA008 for 10 minutes at room temperature (A=100 nM, B=1 nM, C=10 μM). Subsequently, [^32P]NAADP was added and samples incubated for a further 15 minutes at room temperature. Samples were filtered through Whatman GF/B filters to separate bound and free [^32P]NAADP ligand.

[4] = tested on: NAADP-sensitive release mechanism; test: NAADP-mediated calcium release in sea urchin egg homogenate (Fluo-3); type: biochemical; details: 250 nM NAADP, 2.5% homogenate, read-out: IC50, inhibition of NAADP calcium mobilization
Experimental: as §1, §2

[5] = tested on: transfer experimental autoimmune encephalomyelitis (EAE) in Lewis rats; test: Transfer experimental autoimmune encephalomyelitis (EAE); type: in vivo, Lewis rat; details: 50 μmol/100 g body weight i.p. twice per day; day 3.5 to day 6
Description: Transfer of MBP-specific CD4-positive T cells was used at day 0 to induce experimental autoimmune encephalomyelitis (EAE) in Lewis rats. Animals injected with PBS (vehicle) or nicotinic acid (control compound with structural similarities to BZ52) developed severe paralysis of tail and rear legs due to the inflammation. Clinical symptoms started day 3.5 and reached their maxima day 4 to 6 (or 6.5). Between day 3.5 and day 6, no difference between PBS and nicotinic acid was observed, whereas a beneficial effect of BZ52 was visible (FIG. 14).
Animals (6 per group, body weight approx. 150 g) were injected i.p. twice per day with either PBS (vehicle control), nicotinic acid (50 μmol/100 g body weight), or BZ 52 (50 μmol/100 g body weight). Clinical scores indicate the degree of paralysis of tail and legs. Data are presented as mean±SD from one representative experiment (n=6).
Animals (6 per group, body weight approx. 150 g) were injected i.p. twice per day with either PBS (vehicle control), nicotinic acid (50 μmol/100 g body weight), or BZ 52 (50 μmol/100 g body weight). […] Data are presented as mean±SD from one representative experiment (n=6).
5×10^6 activated MBP specific-GFP Tcells were transferred i.v. into recipient Lewis rats. Clinical EAE was graded in five scores: 0.5, loss of tail tonus; 1, tail paralysis; 2, gait disturbance; 3, hind limb paralysis; 4, tetraparesis; 5, death.
Animals' weight was measured twice a day.
In order to analyze the effect of BZ194 on encephalitogenic T cells during the effector phase of EAE we used retrovirally transduced MBP-specific T cells expressing the marker gene green fluorescent protein (TMBP-GFP cells).
Animals were treated for 5 d intraperitoneally with 500 μmol BZ194 or vehicle (DMSO).

Molecule `NC(=O)CC[n+]1cccc(C(=O)O)c1` (as salt: iodide) [Example 11, 1-(2-Carbamoyl-ethyl)-3-carboxy-pyridinium; iodide] has a melting point of 170 to 173 °C.

For `NC(=O)C[n+]1cccc(C(=O)O)c1` [CMA008, 1-Carbamoylmethyl-3-carboxy-pyridinium iodide], the CCK-evoked calcium spiking (pancreatic acinar cells; CMA008 1 mM added post-CCK (5 pM)) was “inhibition”, the resting calcium levels (pancreatic acinar cells; CMA008 1 mM added pre-CCK) was “no apparent effect” and the “response to CCK” value (pancreatic acinar cells; CMA008 1 mM added pre-CCK (5 pM)) was “a much smaller response to CCK was seen, with a greatly reduced frequency”. The CCK-evoked calcium spiking/oscillations (pancreatic acinar cells) was “inhibition”, the CCK-evoked calcium spiking/oscillations (pancreatic acinar cells; listed as CM008) was “inhibited or reduced” and the “effect on total calcium mobilization by cADPR” value [1] was “no effect”. For the same molecule, the “effect on total calcium mobilization by IP3” value [2] was “no effect”, the “calcium release on photolysis of caged NAADP” value ([3]; CMA008 10 mM applied externally in sea water, NPE-NAADP 1 μM) was “blocks; also recorded: failed to induce” and the cell membrane permeation ([3]; inferred from activity of compound applied outside the cell) was “permeates the cell membrane”. The “effect on the Bmax” value (NAADP binding site; 1 nM and 100 nM CMA008) was “no effect”, the “Bmax (total specific binding of [32P]NAADP)” value (NAADP binding site; in the presence of 10 μM CMA008, 2.5% homogenate, 68.65%±2.7 in its absence) was 46.28%±2.61 and the IC50 [4] was 15.1 µM.

`O=C(O)c1ccc[n+](Cc2ccccc2)c1` (as salt: bromide) gave a melting point of 203 to 205 °C.

With `O=C(O)c1cccnc1` [nicotinic acid, reference compound] the “clinical symptoms (clinical score) vs PBS” value [5] was “no difference” and the “effect on [32P]NAADP binding to egg membranes” value (NAADP binding site; up to 1 mM, 0.2 nM [32P]NAADP, 0.5% homogenate) was “without effect”.

With `COC(=O)c1ccc[n+](CCC(N)=O)c1` (as salt: iodide) the melting point was 98 to 100 °C.

`CCC[n+]1cccc(C(=O)O)c1` (as salt: iodide) gave a melting point of 162 to 165 °C.

Work on `CCN(CC)C(=O)C[n+]1cccc(C(=O)OC)c1` (as salt: iodide) yielded a melting point of 163 to 165 °C.

`CCN(CC)CC[n+]1cccc(C(=O)OC)c1` (as salt: iodide) gave a melting point of 172 to 174 °C.

Work on `CCN(CC)C(=O)C[n+]1cccc(C(=O)O)c1` (as salt: iodide) [Example 10, 3-Carboxy-1-diethylcarbamoylmethyl-pyridinium; iodide] yielded a melting point of 97 to 100 °C.

Work on `COC(=O)c1ccc[n+](CCCC#N)c1` (as salt: iodide) yielded a melting point of 167 to 170 °C.
